Results published in patent US11291205B2, “Microbiocidal picolinamide derivatives” (Syngenta Participations AG, priority 2017, dated 2022).

How the values were obtained:
[1] = system: Botryotinia fuckeliana (Botrytis cinerea); test: Botryotinia fuckeliana (Botrytis cinerea) / liquid culture (gray mould); format: cell-based; settings: 72 h, 200 ppm in the formulation, inhibition of growth determined photometrically 3-4 days after application, compared to untreated control, read-out: disease control
Method: (§1) Botryotinia fuckeliana (Botrytis cinerea)/Liquid Culture (Gray Mould) Conidia of the fungus from cryogenic storage are directly mixed into nutrient broth (Vogels broth). After placing a (DMSO) solution of test compound into a microtiter plate (96-well format), the nutrient broth containing the fungal spores is added. The test plates are incubated at 24° C. and the inhibition of growth is determined photometrically 3-4 days after application.

[2] = system: Mycosphaerella graminicola (Septoria tritici); test: Mycosphaerella graminicola (Septoria tritici) / liquid culture (Septoria blotch); format: cell-based; settings: Zymoseptoria tritici, 96 h, 200 ppm in the formulation, inhibition of growth determined photometrically 4 to 5 days after application, compared to untreated control, read-out: disease control
Method: as §1, with “Mycosphaerella graminicola (Septoria tritici)/Liquid” for “Botryotinia fuckeliana (Botrytis cinerea)/Liquid”, “(Septoria Blotch)” for “(Gray Mould)”, “(PDB potato dextrose” for “(Vogels”, “4 to 5” for “3-4”

[3] = system: Monographella nivalis (Microdochium nivale); test: Monographella nivalis (Microdochium nivale) / liquid culture (foot rot cereals); format: cell-based; settings: 96 h, 200 ppm in the formulation, inhibition of growth determined photometrically 4-5 days after application, compared to untreated control, read-out: disease control
Method: as §1, with “Monographella nivalis (Microdochium nivale)/Liquid” for “Botryotinia fuckeliana (Botrytis cinerea)/Liquid”, “(Foot Rot Cereals)” for “(Gray Mould)”, “(PDB potato dextrose” for “(Vogels”, “4-5” for “3-4”

[4] = system: Mycosphaerella arachidis (Cercospora arachidicola); test: Mycosphaerella arachidis (Cercospora arachidicola) / liquid culture (early leaf spot); format: cell-based; settings: 96 h, 200 ppm in the formulation, inhibition of growth determined photometrically 4-5 days after application, compared to untreated control, read-out: disease control
Method: as §1, with “Mycosphaerella arachidis (Cercospora arachidicola)/Liquid” for “Botryotinia fuckeliana (Botrytis cinerea)/Liquid”, “(Early Leaf Spot)” for “(Gray Mould)”, “(PDB potato dextrose” for “(Vogels”, “4-5” for “3-4”

[5] = system: Glomerella lagenarium (Colletotrichum lagenarium); test: Glomerella lagenarium (Colletotrichum lagenarium) / liquid culture (anthracnose); format: cell-based; settings: Colletotrichum orbiculare, 72 h, 200 ppm in the formulation, inhibition of growth measured photometrically 3 to 4 days after application, compared to untreated control, read-out: disease control
Method: as §1, with “Glomerella lagenarium (Colletotrichum lagenarium)/Liquid” for “Botryotinia fuckeliana (Botrytis cinerea)/Liquid”, “(Anthracnose)” for “(Gray Mould)”, “(PDB potato dextrose” for “(Vogels”, “measured” for “determined”, “3 to 4” for “3-4”

[6] = system: Blumeria graminis f. Sp. tritici (Erysiphe graminis f. Sp. tritici); test: Blumeria graminis f. sp. tritici / wheat / leaf disc preventative (powdery mildew on wheat); format: in vivo; settings: 200 ppm in the formulation; wheat leaf segments cv. Kanzler; compared to untreated control; 6-8 days after application
From the text: Blumeria graminis f. Sp. tritici (Erysiphe graminis f. Sp. tritici)/Wheat/Leaf Disc Preventative (Powdery Mildew on Wheat) Wheat leaf segments cv. Kanzler are placed on agar in a multiwell plate (24-well format) and sprayed with the test compound formulated with DMSO and Tween20 and diluted in water. The leaf disks are inoculated by shaking powdery mildew infected plants above the test plates 1 day after application.

| SMILES | inhibition of growth at 200 ppm [1] | inhibition of growth at 200 ppm [2] | inhibition of growth at 200 ppm [3] | inhibition of growth at 200 ppm [4] | inhibition of growth at 200 ppm [5] | disease control [6] |
| --- | --- | --- | --- | --- | --- | --- |
| COc1cccc(C2(c3cccc(OC)c3)CCC2OC(=O)[C@H](C)NC(=O)c2nccc(OC)c2O)c1 (some centres unmarked) [I.t.02] | ≥ 80% | ≥ 80% | ≥ 80% | ≥ 80% | ≥ 80% | at least 80% |
| COc1ccnc(C(=O)N[C@@H](C)C(=O)OC2CCC2(CC(C)C)c2ccc(F)cc2)c1O (stereo partly drawn) [I.at.02, [2-(4-fluorophenyl)-2-isobutyl-cyclobutyl] (2S)-2-[(3-hydroxy-4-methoxy-pyridine-2-carbonyl)amino]propanoate] |  | ≥ 80% | ≥ 80% | ≥ 80% | ≥ 80% |  |
| COc1ccnc(C(=O)N[C@@H](C)C(=O)OC2CCC2(c2ccc(C)cc2)c2ccc(C)cc2)c1O (stereo partly drawn) [I.w.02, [2,2-bis(p-tolyl)cyclobutyl](2S)-2-[(3-hydroxy-4-methoxy-pyridine-2-carbonyl)amino]propanoate] |  | ≥ 80% | ≥ 80% | ≥ 80% | ≥ 80% |  |
| CCCc1ccc(C2CC2OC(=O)[C@H](C)NC(=O)c2nccc(OC)c2O)cc1 (stereo partly drawn) [I.aq.01, [2-(4-propylphenyl)cyclopropyl] (2S)-2-[(3-hydroxy-4-methoxy-pyridine-2-carbonyl)amino]propanoate] | ≥ 80% | ≥ 80% | ≥ 80% | ≥ 80% | ≥ 80% |  |
| COc1ccnc(C(=O)N[C@@H](C)C(=O)OC2CCC2c2ccc(Cl)cc2)c1O (stereo partly drawn) [I.f.02, [2-(4-chlorophenyl)cyclobutyl] (2S)-2-[(3-hydroxy-4-methoxy-pyridine-2-carbonyl)amino]propanoate] | ≥ 80% | ≥ 80% | ≥ 80% | ≥ 80% | ≥ 80% |  |
| COc1ccnc(C(=O)N[C@@H](C)C(=O)OC2CCC2c2ccc(Cl)cc2Cl)c1O (stereo partly drawn) [I.i.02, [2-(2,4-dichlorophenyl)cyclobutyl] (2S)-2-[(3-hydroxy-4-methoxy-pyridine-2-carbonyl)amino]propanoate] | ≥ 80% | ≥ 80% | ≥ 80% | ≥ 80% | ≥ 80% |  |
| COc1ccnc(C(=O)N[C@@H](C)C(=O)OC2CCC2(Cc2ccccc2)c2ccc(F)cc2)c1O (some centres unmarked) [I.au02] | ≥ 80% | ≥ 80% | ≥ 80% | ≥ 80% | ≥ 80% |  |
| COc1ccnc(C(=O)N[C@@H](C)C(=O)OC2CCC2c2ccc(F)cc2)c1O (stereo partly drawn) [I.e.02, [2-(4-fluorophenyl)cyclobutyl] (2S)-2-[(3-hydroxy-4-methoxy-pyridine-2-carbonyl)amino]propanoate] | ≥ 80% | ≥ 80% | ≥ 80% | ≥ 80% | ≥ 80% |  |
| COc1ccnc(C(=O)N[C@@H](C)C(=O)OC2CCC2(c2cccc(C)c2)c2cccc(C)c2)c1O (stereo partly drawn) [I.s.02, [2,2-bis(m-tolyl)cyclobutyl] (2S)-2-[(3-hydroxy-4-methoxy-pyridine-2-carbonyl)amino]propanoate] |  | ≥ 80% | ≥ 80% | ≥ 80% | ≥ 80% |  |
| COc1ccnc(C(=O)N[C@@H](C)C(=O)OC2CCC2(c2ccc(Cl)cc2)c2ccc(Cl)cc2)c1O (stereo partly drawn) [I.v.02, [2,2-bis(4-chlorophenyl)cyclobutyl] (2S)-2-[(3-hydroxy-4-methoxy-pyridine-2-carbonyl)amino]propanoate] |  | ≥ 80% | ≥ 80% | ≥ 80% | ≥ 80% |  |
| CCC1(c2ccc(F)cc2)CCC1OC(=O)[C@H](C)NC(=O)c1nccc(OC)c1O (stereo partly drawn) [I.ag.02, [2-ethyl-2-(4-fluorophenyl)cyclo-butyl] (2S)-2-[(3-hydroxy-4-methoxy-pyridine-2-carbonyl)amino]propanoate] |  | ≥ 80% | ≥ 80% | ≥ 80% | ≥ 80% |  |
| COc1ccnc(C(=O)N[C@@H](C)C(=O)OC2CCC2(C)c2ccc(F)cc2)c1O (stereo partly drawn) [I.ad.02, [2-(4-fluoro phenyl)-2-methyl-cyclobutyl] (2S)-2-[(3-hydroxy-4-methoxy-pyridine-2-carbonyl)amino]propanoate] |  | ≥ 80% | ≥ 80% |  | ≥ 80% |  |
| COc1ccnc(C(=O)N[C@@H](C)C(=O)OC2CCC2(c2ccc(Cl)cc2)C2CC2)c1O (stereo partly drawn) [I.as.02, [2-(4-chlorophenyl)-2-cyclopropyl-cyclobutyl] (2S)-2-[(3-hydroxy-4-methoxy-pyridine-2-carbonyl)amino]propanoate] | ≥ 80% | ≥ 80% | ≥ 80% | ≥ 80% | ≥ 80% |  |
| COc1ccnc(C(=O)N[C@@H](C)C(=O)OC2CCC2(c2ccccc2)c2ccccc2)c1O (stereo partly drawn) [I.k.02, (2,2-diphenyl cyclobutyl) (2S)-2-[(3-hydroxy-4-methoxy-pyridine-2-carbonyl)amino]propanoate] | ≥ 80% | ≥ 80% | ≥ 80% | ≥ 80% | ≥ 80% |  |
| COc1ccnc(C(=O)N[C@@H](C)C(=O)OC2CCC2(c2ccc(F)cc2)C2CC2)c1O (stereo partly drawn) [I.ar.02, [2-cyclopropyl-2-(4-fluorophenyl)cyclobutyl] (2S)-2-[(3-hydroxy-4-methoxy-pyridine-2-carbonyl)amino]propanoate] | ≥ 80% | ≥ 80% | ≥ 80% | ≥ 80% | ≥ 80% |  |
| COc1ccnc(C(=O)N[C@@H](C)C(=O)OC2CCC2c2ccc(F)cc2F)c1O (stereo partly drawn) [I.h.02, [2-(2,4-difluorophenyl)cyclobutyl] (2S)-2-[(3-hydroxy-4-methoxy-pyridine-2-carbonyl)amino]propanoate] | ≥ 80% | ≥ 80% | ≥ 80% | ≥ 80% | ≥ 80% |  |
| COc1ccnc(C(=O)N[C@@H](C)C(=O)OC2CC2c2ccc(C(C)(C)C)cc2)c1O (stereo partly drawn) [I.ap.01, [2-(4-tert-butylphenyl)cyclopropyl] (2S)-2-[(3-hydroxy-4-methoxy-pyridine-2-carbonyl)amino]propanoate] | ≥ 80% | ≥ 80% | ≥ 80% | ≥ 80% | ≥ 80% |  |
| COc1ccnc(C(=O)N[C@@H](C)C(=O)OC2CCC2(c2ccc(F)cc2)c2ccc(F)cc2)c1O (stereo partly drawn) [I.u.02, [2,2-bis(4-fluorophenyl)cyclobutyl] (2S)-2-[(3-hydroxy-4-methoxy-pyridine-2-carbonyl)amino]propanoate] | ≥ 80% | ≥ 80% | ≥ 80% | ≥ 80% | ≥ 80% |  |
| COc1ccnc(C(=O)N[C@@H](C)C(=O)OC2CCC2(c2ccc(F)cc2)c2ccc(F)cc2)c1OC(C)=O (stereo partly drawn) [I.u.14, [2,2-bis(4-fluorophenyl)cyclobutyl] (2S)-2-[(3-acetoxy-4-methoxy-pyridine-2-carbonyl)amino]propanoate] | ≥ 80% | ≥ 80% | ≥ 80% | ≥ 80% | ≥ 80% |  |
